The values below come from ChEMBL document CHEMBL5226312, “Structural Evolution and Translational Potential for Agonists and Antagonists of Endosomal Toll-like Receptors” (J Med Chem, 2021).

SMILES strings stand for the structures.

The test system of test [1] is Splenocyte. Kind of test: Induction IFN production in C3H/HeJ mouse Splenocytes measured after 18 hrs. In kind it is functional. The settings on record: read-out: MEC.
The nature of test [2]: Antagonist activity at mouse CpG-oligonucleotide in mouse WEHI-231 cells assessed as inhibition of CpG-oligonucleotide induced thymidine uptake preincubated for 16 hrs followed by 3H-thymidine addition and measured after 4 hrs in presence of anti-serum IgM by radioactivity analysis. In kind it is cell-based. The settings on record: WEHI231.
Test [3] has as its target T1, Toll-like receptor 8 (Homo sapiens, UniProt Q9NR97).
T1 sequence (Q9NR97 whole entry): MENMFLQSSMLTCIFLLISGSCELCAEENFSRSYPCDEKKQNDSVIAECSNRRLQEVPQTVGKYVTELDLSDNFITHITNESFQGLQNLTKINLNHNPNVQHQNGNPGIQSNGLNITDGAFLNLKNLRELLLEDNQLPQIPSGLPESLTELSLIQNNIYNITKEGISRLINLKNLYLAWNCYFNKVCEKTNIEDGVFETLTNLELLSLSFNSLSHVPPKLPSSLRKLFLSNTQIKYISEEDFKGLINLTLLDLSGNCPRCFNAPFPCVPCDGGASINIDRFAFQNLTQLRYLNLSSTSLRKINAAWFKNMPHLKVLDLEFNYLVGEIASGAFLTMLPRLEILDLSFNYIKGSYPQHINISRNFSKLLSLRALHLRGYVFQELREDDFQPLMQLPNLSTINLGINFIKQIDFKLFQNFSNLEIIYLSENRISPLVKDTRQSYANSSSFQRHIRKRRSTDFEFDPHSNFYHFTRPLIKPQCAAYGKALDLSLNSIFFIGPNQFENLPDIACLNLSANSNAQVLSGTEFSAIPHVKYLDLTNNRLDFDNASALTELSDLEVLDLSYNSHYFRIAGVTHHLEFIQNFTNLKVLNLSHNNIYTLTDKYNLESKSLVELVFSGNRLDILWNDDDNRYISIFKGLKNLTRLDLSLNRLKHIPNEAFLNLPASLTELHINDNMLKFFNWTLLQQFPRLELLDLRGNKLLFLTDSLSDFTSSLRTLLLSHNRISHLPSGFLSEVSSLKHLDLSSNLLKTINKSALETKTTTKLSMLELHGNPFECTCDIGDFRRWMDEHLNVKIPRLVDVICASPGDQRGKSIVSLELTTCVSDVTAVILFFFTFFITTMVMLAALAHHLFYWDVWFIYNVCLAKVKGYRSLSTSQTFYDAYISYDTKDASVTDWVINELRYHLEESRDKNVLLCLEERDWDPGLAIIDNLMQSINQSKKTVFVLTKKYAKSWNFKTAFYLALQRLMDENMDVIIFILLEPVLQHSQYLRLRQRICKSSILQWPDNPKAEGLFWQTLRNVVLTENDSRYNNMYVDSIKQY
Kind of test: Agonist activity at human TLR8 stably expressed in human HEK-Blue hTLR8 cells assessed as activation of NFkappaB by SAP reporter gene based spectrophotometric assay. In kind it is cell-based.

Test [4] can be described thus: Antagonist activity at monkey TLR7 expressed in Drosophila S2 cells by ITC analysis. The arrangement: species or system Macaca mulatta.
Test [5] can be described thus: Antagonist activity at mouse CpG-oligonucleotide in mouse WEHI-231 cells assessed as inhibition of CpG-oligonucleotide induced thymidine uptake in presence of anti-serum IgM. In kind it is cell-based. Conditions: WEHI231.
Test [6] concerns the target T2, Toll-like receptor 7 (Homo sapiens, UniProt Q9NYK1).
T2 sequence (Q9NYK1 whole entry): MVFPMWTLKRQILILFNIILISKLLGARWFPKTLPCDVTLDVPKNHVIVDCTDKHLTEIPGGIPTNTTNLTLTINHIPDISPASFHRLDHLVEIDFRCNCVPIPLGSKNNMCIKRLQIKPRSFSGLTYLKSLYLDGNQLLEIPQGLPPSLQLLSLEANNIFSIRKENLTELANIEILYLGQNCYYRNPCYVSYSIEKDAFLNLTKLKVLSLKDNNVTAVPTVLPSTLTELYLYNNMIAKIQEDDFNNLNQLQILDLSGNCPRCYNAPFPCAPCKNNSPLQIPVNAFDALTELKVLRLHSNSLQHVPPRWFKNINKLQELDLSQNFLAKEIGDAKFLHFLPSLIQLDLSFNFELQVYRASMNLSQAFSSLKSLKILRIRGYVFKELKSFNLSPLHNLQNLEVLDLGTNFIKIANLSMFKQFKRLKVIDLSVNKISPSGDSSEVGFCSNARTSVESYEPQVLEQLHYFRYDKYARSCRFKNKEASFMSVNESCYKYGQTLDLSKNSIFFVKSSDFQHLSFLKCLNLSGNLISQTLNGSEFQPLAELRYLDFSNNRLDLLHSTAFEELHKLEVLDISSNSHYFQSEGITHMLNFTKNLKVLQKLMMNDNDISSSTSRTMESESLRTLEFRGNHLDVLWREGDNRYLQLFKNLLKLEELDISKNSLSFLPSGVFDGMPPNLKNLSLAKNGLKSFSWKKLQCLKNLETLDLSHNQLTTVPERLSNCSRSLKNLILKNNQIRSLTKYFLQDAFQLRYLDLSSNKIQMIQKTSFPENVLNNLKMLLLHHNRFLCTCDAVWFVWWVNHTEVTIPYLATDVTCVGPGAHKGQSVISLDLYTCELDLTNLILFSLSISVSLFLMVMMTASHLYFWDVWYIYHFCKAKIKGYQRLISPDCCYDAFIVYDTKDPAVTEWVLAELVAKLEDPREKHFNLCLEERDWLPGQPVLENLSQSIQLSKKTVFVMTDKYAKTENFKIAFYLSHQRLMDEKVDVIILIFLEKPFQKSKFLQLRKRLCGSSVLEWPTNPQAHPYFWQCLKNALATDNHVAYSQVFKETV
Kind of test: Agonist activity at human TLR7.

As for `CCCCOc1nc(N)c2[nH]c(=O)n(Cc3ccccc3)c2n1`, the minimal effective concentration in test [1] came to 0.001 µM.

Turning to `CN(C)CCNc1cc(-c2ccc(CN3CCN(C)CC3)cc2)nc2ccccc12`, in test [2], the EC50 stood at 7.07 nM.

For the compound `CN(C)CCNc1cc(-c2ccc(N3CCN(C)CC3)cc2)nc2ccccc12`, in test [2], the EC50 is 0.76 nM.

On to `CN1CCN(Cc2ccc(-c3cc(N4CCN(C)CC4)c4ccccc4n3)cc2)CC1`, for which the EC50 in test [2] stood at 58 nM.

In the case of `CCCCOc1nc(N)c2nc(S)n(Cc3ccccc3)c2n1`, in test [1], the minimal effective concentration came out at 0.001 µM.

On to `CCCCCc1nc(N)c2[nH]c(=O)n(Cc3ccccc3)c2n1`, for which the minimal effective concentration in test [1] worked out at 0.01 µM.

On to `CCCCc1nc2c(N)nc3ccccc3c2s1`, for which, in test [3], the EC50 was 410 nM.

In test [4], `CCOc1nc(C)c2nc(-c3cncc(F)c3)n(Cc3ccc(CN4C[C@H]5C[C@@H]4CN5C)cc3)c2n1` gave an IC50 of 25 nM.

Regarding `CCOc1nc(N)c2nc(-c3cncc(F)c3)n(Cc3ccc(CN4C[C@H]5C[C@@H]4CN5C)cc3)c2n1`, in test [4], the IC50 worked out at 25 nM.

Turning to `CN(C)CCNc1cc(-c2ccc3ccccc3c2)nc2ccccc12`, the EC50 in test [5] was determined as 9.1 nM.

Turning to `CN1CCN(Cc2cc(Nc3cc(-c4ccc5ccccc5c4)nc4ccccc34)cc(CN3CCN(C)CC3)c2O)CC1`, in test [5], the EC50 amounted to 0.24 nM.

As to `CCN(CC)CCCC(C)Nc1cc(-c2ccccc2)nc2ccccc12` (centres undefined), in test [5], the EC50 is 51.3 nM.

In the case of `CCN(CC)CCCC(C)Nc1ccnc2cc(Cl)ccc12` (centres undefined) [CHLOROQUINE], the EC50 in test [5] was 110 nM.

`CC(C)Cn1cnc2c(N)nc3ccccc3c21` [IMIQUIMOD]: in test [6], the midpoint of the response, the EC50, lay at 2210 nM.
